≈ marks a conversion by molar mass, not a printed value.
Assays:
[1] = test system: Saccharomyces cerevisiae; assay: DNA damaging activity against yeast 1138 mutant assessed as drug level required to produce 12 mm zone of inhibition; assay type: functional
[2] = test system: Saccharomyces cerevisiae; assay: DNA damaging activity against yeast 1140 mutant assessed as drug level required to produce 12 mm zone of inhibition; assay type: functional
[3] = test system: Saccharomyces cerevisiae; assay: DNA damaging activity against yeast 1353 mutant assessed as drug level required to produce 12 mm zone of inhibition; assay type: functional
[4] = test system: Saccharomyces cerevisiae; assay: DNA damaging activity against yeast Sc7 mutant assessed as drug level required to produce 12 mm zone of inhibition; assay type: functional
[5] = test system: A2780; assay: Cytotoxicity against human A2780 cells; assay type: functional, cell-based

`C/C=C(/C)C(=O)O[C@H]1[C@H](OC(=O)C=C(C)C)[C@@]2(CO)[C@H](CC1(C)C)C1=CC[C@@H]3[C@@]4(C)CC[C@H](O[C@@H]5O[C@H](C(=O)O)[C@@H](O[C@H]6O[C@H](CO)[C@@H](O)[C@@H]6O)[C@H](O[C@H]6OC[C@@H](O)[C@@H](O)[C@@H]6O)[C@H]5O[C@@H]5O[C@H](CO)[C@@H](O)[C@H](O)[C@H]5O)C(C)(C)[C@@H]4CC[C@@]3(C)[C@]1(C)[C@@H](O)[C@H]2O` [PITTOVIRIDOSIDE] gave an IC12 [1] of 85 µg/mL, an IC12 [2] of 80 µg/mL and an IC12 [3] of 140 µg/mL. It also gave an IC12 [4] of 100 µg/mL and an IC50 [5] of 10.1 µg/mL (≈ 7.93 µM).
